Results: US20260043007A1, “METHOD FOR PRODUCING CARDIAC MUSCLES” (Kyoto University, priority 2022, published 2026)

Columns and labels:
[1] = test system: cardiomyocyte subpopulations differentiated from human iPS cells; assay: Proportion of atrial myocytes by whole-cell patch clamp electrophysiology; type: cell-based; settings: for atrial myocytes (%): APD 30/90 less than 0.3 and dv/dtmax 10 or more
Method: (§1) On the 6th day of differentiation, the medium was replaced with cardiomyocyte induction medium 3, and from the 8th day of differentiation onwards, 3 μM of γ-secretase inhibitor (LY411575) that inhibits Notch signaling was added when changing the medium, and the cells were cultured at 37° C. under 5% oxygen conditions until the 10th day. Cells added with 0.1% DMSO were also prepared as a control. Thereafter, the medium was changed on the 10th, 13th, 15th, and 17th days, and after the medium change on the 10th day, the cells were cultured under normal oxygen conditions until the 20th day. As the cardiomyocyte induction medium 3, StemPro-34 SFM supplemented with 1% L-glutamine, 150 μg/ml transferrin, 50 μg/ml ascorbic acid, 4×10^-4 M monothioglycerol, and 5 ng/ml VEGF was used.
The proportion of atrial myocytes was determined by an electrophysiological method for the “Notch inhibitor/CD151-high” and “Notch inhibitor/CD151-low” cardiomyocyte subpopulations obtained in Experimental Example 2.
Each cell subpopulation was cultured on a fibronectin-coated cover glass. Culture was performed at 37° C. under normal oxygen conditions using StemPro-34 SFM supplemented with 1% L-glutamine, 150 μg/ml transferrin, 50 ug/ml ascorbic acid, 4×10^-4 M monothioglycerol, and 5 ng/ml VEGF, with medium change every 3 days. Cells on the 15th and 16th days of culture were subjected to electrophysiological analysis.
Analysis was performed using the whole-cell patch clamp method using Axopatch 200B amplifier (Molecular Devices) and pCLAMP software. Electrodes were made with glass capillaries (WPI) using a micropipette puller and filled with intracellular solution (130 mM KOH, 130 mM L-aspartic acid, 20 mM KC1, 5 mM NaCl, 10 mM HEPES, 5 mM Mg-ATP, 10 mM EGTA, 1 mM MgC12, PH 7.2). Experiments were performed at 35-37° C. while perfusing Gey's balanced salt solution (Sigma) as the extracellular solution. The spontaneous action potential of each cell was recorded for 1 min in current clamp mode. APD30, APD90, and maximum velocity of waveform rise (dv/dtmax) were calculated from the average waveform of 8-10 consecutive waveforms. Cells showing a waveform with APD 30/90 of less than 0.3 and dv/dtmax of 10 or more were defined as atrial myocytes. Cells showing a waveform with APD 30/90 of 0.3 or more and dv/dtmax of 10 or more or dv/dtmax of less than 10 were classified as other cells. […]

[2] = test system: marker genes of atrial myocytes (NR2F1, NR2F2, NPPA, KCNA5, KCNJ3, TBX5 and MYL7); assay: Expression analysis of atrial myocyte marker genes in sorted cell subpopulations; type: cell-based, human; settings: both CD151-high and CD151-low, compared to DMSO-added control population
Method: as §1
(§2) The expression of marker genes indicating Notch signal activity and atrial myocyte markers was analyzed for the cardiomyocyte subpopulations “DMSO/CD151-high”, “DMSO/CD151-low”, “Notch inhibitor/CD151-high”, and “Notch inhibitor/CD151-low” obtained in Experimental Example 2.
(§3) According to the conventional method, total RNA was extracted from each cell subpopulation and expression analysis was performed for the target gene of Notch signal (HEY2) and the marker genes of atrial myocytes (NR2F1, NR2F2, NPPA, KCNA5, KCNJ3, TBX5 and MYL7). […]

[3] = test system: HEY2 (target gene of Notch signal); assay: Expression analysis of the target gene of Notch signal (HEY2) in sorted cell subpopulations; type: cell-based, human; settings: both CD151-high and CD151-low, compared to DMSO-added control
Method: as §1, §2, §3

[4] = test system: CD151 expression in EmGFP-positive cells induced from human iPS cell line (1390D4 strain); assay: Sorting of atrial myocyte population based on CD151 expression level (flow cytometry); type: cell-based; settings: 3 μM LY411575 from day 8 to day 20 of differentiation, mean ± standard error
Method: A cell population containing cardiomyocytes was induced from iPSC under atrial myocyte differentiation conditions or ventricular myocyte differentiation conditions. As iPSC, a double knock-in human iPS cell line (1390D4 strain) was used, in which EmGFP was inserted into the TNNI1 locus and mCherry was inserted into the TNNI3 locus as reporter proteins.
To differentiate iPSC into cardiomyocytes, iPSC was seeded into low-adhesion 6-well plates (2×10^6 cells/1.5 ml/well) and statically cultured at 37° C. and 5% oxygen to form embryoid bodies (day 0). The culture medium used was StemPro-34 SFM (Thermo Fisher Scientific) supplemented with 1% L-glutamine, 150 μg/ml transferrin, […] ascorbic acid, 4×10^-4 M monothioglycerol, 10 μM Rock inhibitor (Y-27632), 2 ng/ml BMP4, and 0.5% Matrigel. […]
On the 20th day of culture, the cell population containing atrial myocytes was dispersed into single cells and the cell number was counted. […] CD151 expression in EmGFP-positive cells was analyzed using a flow cytometer (BD FACS Aria Fusion cell sorter). The fluorescence intensity of 95% or more of the negative control cells was set as the threshold, and the cell subpopulations showing fluorescence intensity lower than the threshold were defined as “CD151-low” and the cell subpopulations showing fluorescence intensity higher than the threshold were defined as “CD151-high”. […]

[5] = CD151-high subpopulation, n = 19
[6] = CD151-low subpopulation, n = 20

C[C@H](NC(=O)[C@@H](O)c1cc(F)cc(F)c1)C(=O)N[C@@H]1C(=O)N(C)c2ccccc2-c2ccccc21 [Notch inhibitor]
other cells (%) [1, 5]: 68%
atrial myocytes (%) [1, 5]: 32%
other cells (%) [1, 6]: 20%
atrial myocytes (%) [1, 6]: 80%
expression of atrial myocyte markers [2]: increased
expression of the HEY2 gene [3]: reduced
Cell population (%) CD151-high [4]: 39.9 ± 3.3%
Cell population (%) CD151-low [4]: 60.1 ± 3.3%
